Measured values as given in US20160199434A1, “COMPOSITIONS AND METHODS FOR MODULATING DNA METHYLATION” (OHIO STATE INNOVATION FOUNDATION, priority 2013, published 2016).
Entries after “also recorded” stand apart in the source; their conditions may differ.

Key:
[1] = tested on: desmoplakin (DSP) gene promoter; assay: Methylation of DSP promoter in MCF-7 breast cancer cells; format: cell-based, human
Experimental: (§1) FIGS. 3A-3E show the effect of AKB-6899 (25 μM) on methylation of the desmoplakin (DSP) gene promoter in PyMT breast cancer cells (3A), human MDA-MB-231 triple negative breast cancer cells (3B), human C8161.9 melanoma cells (3C), and human MCF-7 breast cancer cells (3D). In FIG. 3A, the DSP promoter was 100% unmethylated (AKB-6899) vs. 99.99% methylated (vehicle). In FIG. 3B, the DSP promoter was 99.62% unmethylated (AKB-6899) v. 99.89% (vehicle). In FIG. 3C, the DSP promoter was 99.90% unmethylated (AKB-6899) v. 42.04% (vehicle). In FIG. 3D, the DSP promoter was 92.48% unmethylated (AKB-6899) v. 98.48% (vehicle). In FIG. 3E, when compared to the vehicle (DMSO), treatment of PyMT cells with AKB-6899 increased DSP expression.
(§2) The gene expression signatures from the tumors of PyMT breast tumor-bearing mice that were treated with either vehicle or AKB-6899 were evaluated. […] Methylation-specific PCR on the desmoplakin promoter was performed. The level of hypomethylation was near complete.

RASSF1 mRNA = RASSF1 mRNA expression in lungs of normal mice; format: in vivo, mouse; details: i.p., three weeks (FIG. 14C)
Experimental: (§3) FIGS. 14A-14C show the effects of systemic administration of AKB-6899. Mice were treated three times per week for three weeks with either i.p. AKB-6899 or i.p. DMSO. The lungs were removed and assayed to determine DNMT mRNA expression, percent CpG methylation, and fold change in mRNA. […] The data was standardized to 1.0 by the DMSO levels of the respective gene expression, (n=4 lungs per condition).

[2] = tested on: desmoplakin (DSP) gene promoter; assay: Methylation of DSP promoter in C8161.9 melanoma cells; format: cell-based, human
Experimental: as §1, §2

DNMT-3a [3] = assay: DNMT-3a mRNA expression by RT-PCR in PyMT tumor cells; format: cell-based, mouse; details: for DNMT-3a mRNA expression: PyMT tumor cells, 24 hours, compared to DMSO (FIG. 1A)
Experimental: (§4) FIGS. 1A-1E show DNA methyltransferase mRNA expression in vitro and in vivo. […] PyMT tumor cells were left untreated, were treated with DMSO, or were treated with AKB-6899 (10, 25, or 50 μM) for 24 hours. The cells were subjected to Trizol extraction to recover total RNA. cDNA was synthesized for RT-PCR of DNMT-1 and DNMT-3a mRNA expression. […] Human MDA-MB-231 tumor cells were left untreated, were treated with DMSO, or were treated with AKB-6899 (25 μM) for 24 hours. Total RNA was isolated for RT-PCR. FIG. 1C (DNMT-1), FIG. 1D (DNMT-3a), and FIG. 1E (DNMT-3b) compare the effect of AKB-6899 with the effect of 5-aza-2′deoxycytidine (5-AZA) as assessed by RT-PCR in human cervical tumors implanted in mice that were either untreated (UTX), treated with DMSO, treated with 5-AZA, or treated with AKB-6899 (17.5 mg/kg).
Because DSP is regulated by ER/PR expression, and because late-stage PyMT tumors lose ER/PR-positivity and heavily metastasize to the lymph nodes and lungs (Lin et al., 2003), the effects of AKB-6899 on more global events that regulate gene expression was evaluated. PyMT tumor cells in culture were treated with DMSO or AKB-6899. Methylation-specific PCR for CpG islands in the desmoplakin promoter were performed. […] Trypan Blue confirmed no cell death in AKB-6899 treated cells when compared to control cells. The experiment was repeated and RNA was isolated from the cells. RT-PCR was performed and the regulation of DNA methyltransferases (DNMTs) was evaluated. […] (FIG. 1A). The decrease in mRNA levels of DNMT-1 and DNMT-3a increased the mRNA level of DSP (FIG. 4A) and increased desmoplakin protein expression (FIG. 5A).

DNMT-1 = DNMT-1 transcription in H1703 lung cancer cells; format: cell-based, human; details: H1703 cells in vitro, dose-dependent (FIG. 10A)
Text: In FIG. 10A, AKB-6899 inhibited DNMT-1, DNMT-3a, and DNMT-3b transcription in a dose-dependent manner in human squamous cell carcinoma lung cancer cells (H1703), in vitro. The DMSO-treated DNMT mRNAs are over 1.0, meaning the level of expression is higher than the housekeeping control gene, CAP1. In FIG. 10B, AKB-6899 inhibited DNMT-3a and DNMT-3b transcription in human adenocarcinoma lung cancer cells (A549). The DMSO-treated DNMT mRNAs are under 1.0, meaning the level of expression is lower than the housekeeping control gene, CAP1.

DSP mRNA = DSP mRNA expression in lungs of normal mice; format: in vivo, mouse; details: i.p., three weeks (FIG. 14C)
Experimental: as §3

[4] = tested on: H1703 squamous cell carcinoma; assay: XTT cell survival assay, H1703 lung cancer cells; format: cell-based, human; details: H1703, increasing doses (FIG. 13B)
Text: FIGS. 13A-13B show XTT cell survival assays for normal lung epithelial cells (BEAS-2B) and lung cancer cells (H1703 squamous cell carcinoma and A549 adenocarcinoma) in response to increasing doses of AKB-6899.

DNMT-3a [5] = assay: DNMT-3a mRNA expression by RT-PCR in MDA-MB-231 tumor cells; format: cell-based, human; details: 25 μM, 24 hours, compared to DMSO (FIG. 1B)
Experimental: as §4
To determine whether the decrease in DNMT expression and the increase in DSP expression were relevant in human cancer, the level of desmoplakin expression in MDA-MB-231 human triple negative breast cancer cells was determined. […] (FIG. 3B).

DSP promoter = assay: CpG methylation of DSP promoter in lungs of normal mice; format: in vivo, mouse; details: i.p., three weeks (FIG. 14B)
Experimental: as §3

[6] = tested on: human A375 melanoma cells; assay: Tumor growth of human A375 melanoma cells implanted in SCID mice; format: in vivo, mouse; details: 19 days after palpable tumor formation, AKB-6899 17.5 mg/kg, Docetaxel 30 mg/kg
Experimental: During treatment, tumor growth was determined. Animals were treated with one the following combinations: vehicle/vehicle, vehicle/AKB-6899 (17.5 mg/kg), Docetaxel (30 mg/kg)/vehicle, or Docetaxel/AKB-6899. 19 days after palpable tumor formation, the tumors in the mice receiving the vehicle/AKB-6899 combination had tumors that were 74% the size of control; the tumors in the mice receiving Docetaxel/vehicle combination had tumors that were 49% the size of control; and the tumors in the mice receiving the Docetaxel/AKB-6899 combination had tumors that were 13% the size of control.

For O=C(O)CNC(=O)c1ncc(-c2cccc(F)c2)cc1O [AKB-6899, {[5-(3-Fluorophenyl)-3-hydroxypyridine-2-carbonyl]amino}acetic acid], the “level of hypomethylation of desmoplakin promoter (in words)” value [1] was “near complete”, the DSP promoter unmethylated ([1]; 25 μM (FIG. 3D)) was 92.48% and the “RASSF1 mRNA expression in lungs” value (RASSF1 mRNA) was “increased”. The DSP promoter unmethylated ([2]; C8161.9 melanoma cells, 25 μM (FIG. 3C)) was 99.90%, the “level of hypomethylation of desmoplakin promoter (in words)” value ([2]; C8161.9 melanoma tumor cells) was “near complete” and the “DNMT-3a mRNA level” value (DNMT-3a [3]; PyMT tumor cells in culture, concentration not given) was “significant decreases; also recorded: downregulated”. For the same compound, the “DNMT-3a mRNA expression” value (DNMT-3a [3]; 25 μM) was “significantly inhibited”, the “DNMT-3a mRNA expression” value (DNMT-3a [3]; 50 μM) was “significantly inhibited” and the DNMT-1 transcription (DNMT-1) was “inhibited”. The “DSP mRNA expression in lungs” value (DSP mRNA) was “increased”, the “cell survival / toxicity” value [4] was “pronounced toxicity” and the “DNMT-3a mRNA expression” value (DNMT-3a [5]) was “significantly decreased; also recorded: downregulated”. The “methylation of DSP promoter in lungs” value (DSP promoter) was “demethylated” and the “tumor size relative to control” value [6] was 74%.
